In the test the test system is Plasmodium berghei. The test is described as follows: Luciferase/luciferin-expressing antifolate-resistant parasites were used to infect a culture of HepG2 cells that were pre-incubated with compounds. Infected hepatocytes emit light due to the luciferase reaction. Assay results are presented as the percent inhibition of light emission compared to control. […]. It is filed as functional. The note with it: sporozoite; for IC50: read-out: LUCIFERASE INFECTION ASSAY - IC50; for IC90: read-out: LUCIFERASE INFECTION ASSAY - IC90.

By IC50 is commonly meant the midpoint of a concentration-inhibition curve. As usually defined, the IC90 is the point of the concentration-response curve where the effect stands at 90%. In the case of `Cc1cccc(NC(=O)c2ccc(Cl)c(S(=O)(=O)N3CCc4ccccc43)c2)n1`, the IC50 was more than 10 µM and the concentration for an effect of 90% (IC90) is more than 10 µM.
Turning to `N#Cc1ccc(CN2CCN(Cc3nnc(C(=O)Nc4ccc(Cl)cc4)s3)CC2)cc1`, the IC50 was more than 10 µM and the IC90 is more than 10 µM.
For `O=C(CN1C(=O)c2cccc([N+](=O)[O-])c2C1=O)OCC(=O)N1CCC(Cc2ccccc2)CC1`, the IC50 is more than 10 µM and the IC90 is more than 10 µM.
For `CC(=O)c1csc(NC(=O)c2ccc(CSc3ccccc3)o2)n1`, the IC50 is more than 10 µM and the IC90 is more than 10 µM.
For `Cc1nn(-c2ccccc2Cl)c2sc(C(=O)Nc3ccc(-c4nnc5n4CCCCC5)cc3)cc12`, the IC50 is more than 10 µM and the IC90 is more than 10 µM.
As for `Cc1ccccc1C(=O)/C=c1\s/c(=C\c2ccc(O)cc2)c(=O)n1C`, the IC50 is more than 10 µM and the IC90 was more than 10 µM.
In the case of `Cc1nccn1Cc1cccc(CNC(=O)/C=C/c2cccc(Cl)c2Cl)c1`, the IC50 is more than 10 µM and the IC90 is more than 10 µM.
Take `COc1ccccc1-c1noc(CSc2nc3ccccc3c(=O)n2-c2ccc(C)cc2)n1`: the IC50 was more than 10 µM and the IC90 was more than 10 µM.
With `O=C1c2cc(Br)ccc2S(=O)(=O)N1CC(c1ccco1)N1CCCC1` (stereo not given), the IC50 is more than 10 µM and the IC90 was more than 10 µM.
For `Cc1c(C(=O)O)sc(S(=O)(=O)N2CCN(C(=O)C(C)(C)C)CC2)c1C(=O)O`, the IC50 is more than 10 µM and the IC90 is more than 10 µM.
As for `O=C(NCc1ccc(Cn2cccn2)cc1)N1CCN(c2ccc(C(F)(F)F)cc2[N+](=O)[O-])CC1`, the IC50 was more than 10 µM and the IC90 is more than 10 µM.
`O=C(c1ccc2[nH]c3c(c2c1)CCCC3)N1CCN(Cc2nc(-c3cccs3)no2)CC1`: the IC50 is more than 10 µM and the IC90 was more than 10 µM.
For the compound `CC1Sc2ccc(C(=O)Nc3ccnn3Cc3cccc(Cl)c3Cl)cc2NC1=O` (stereo not given), the IC50 was more than 10 µM and the IC90 is more than 10 µM.
Turning to `CCOc1cc(/C=C/C(=O)c2ccc(C)cc2)cc(Br)c1OCC(=O)N(C)C`, the IC50 was found to be 3.4 µM and the IC90 was 3.89 µM.
The like results for `Cc1nn(CC(=O)NCCCN2c3ccccc3Sc3ccccc32)c(C)c1[N+](=O)[O-]` were, in that order, more than 10 µM and more than 10 µM.
On to `O=C(CCc1c[nH]c2ccccc12)Nc1ccc(N2CCc3sccc3C2)nc1`, for which the IC50 came out at 8.67 µM and the IC90 was more than 10 µM.
Turning to `Cc1c(C(=O)Nc2ccc(N3CCN(C)CC3)nc2)cnn1-c1ccc(C(F)(F)F)cn1`, the IC50 was more than 10 µM and the IC90 was more than 10 µM.
With `CC(C)c1cc(C(=O)OCCCn2c(=O)[nH]c3ccccc32)c2cnn(C(C)C)c2n1`, the IC50 was more than 10 µM and the concentration for an effect of 90% (IC90) is more than 10 µM.
With `O=C(Cc1csc(-c2ccccn2)n1)Nc1sc2c(c1C(=O)NCc1ccccc1)CCCC2`, the IC50 is more than 10 µM and the IC90 was more than 10 µM.
As for `CCCCN(C)S(=O)(=O)c1ccc(NC(=O)c2ccc3nccnc3c2)cc1`, the IC50 was more than 10 µM and the IC90 is more than 10 µM.
As for `COc1cc(/C=C2/C(=O)N(C)c3ccccc32)cc(OC)c1`, the IC50 is more than 10 µM and the IC90 is more than 10 µM.
For `Cc1cc(N(CCC#N)C(=O)Cn2ncc(Cl)c(Cl)c2=O)ccc1Cl`, the IC50 amounted to 5.68 µM and the IC90 was 5.85 µM.
On the same counts, the results for `CCc1ccccc1-n1c(SCCn2c(=O)oc3ccccc32)nc2ccccc2c1=O` are more than 10 µM and more than 10 µM.
As for `CN1C(=O)/C(=C\c2ccccc2[N+](=O)[O-])c2ccccc21`, the IC50 was 9.31 µM and the IC90 is more than 10 µM.
`Cc1cc(=O)oc2cc(NCC(=O)Nc3cc4c(cc3Cl)OCCO4)ccc12`: the IC50 was more than 10 µM and the IC90 is more than 10 µM.
As to `Cc1ccc2nc(NC(=O)c3cn(C)nc3-c3ccc4c(c3)OCCCO4)sc2c1`, the IC50 is more than 10 µM and the IC90 was more than 10 µM.
As for `COc1ccccc1CNC(=O)NC(C)c1ccc(Cl)cc1Cl` (stereo not given), the IC50 was more than 10 µM and the IC90 was more than 10 µM.
In the case of `Cc1ccc(S(=O)(=O)N(C)c2ccc(OCc3coc(-c4cccs4)n3)cc2)cc1`, the IC50 was more than 10 µM and the IC90 is more than 10 µM.
In the case of `CC(=O)NCCc1ccc(C(=O)CSc2nccn2-c2ccc(Cl)cc2)s1`, the IC50 was more than 10 µM and the IC90 was more than 10 µM.
Regarding `c1ccc(-c2csc3nc(-c4ccccn4)nc(Sc4nnc(-c5ccco5)o4)c23)cc1`, the IC50 was more than 10 µM and the IC90 is more than 10 µM.
With `O=C(OCC(=O)C12CC3CC(CC(C3)C1)C2)c1cc2ccccc2cc1O`, the IC50 was more than 10 µM and the IC90 was more than 10 µM.
For the compound `CCN(Cc1ccc2c(c1)OCCO2)C(=O)C1CCN(c2ncnc3sc(C)c(C)c23)CC1`, the IC50 was more than 10 µM and the IC90 is more than 10 µM.
Take `Cc1cc(-c2nc3c(c(=O)[nH]c(=O)n3Cc3ccccc3)n2CC2CCCO2)cc(C)c1O` (stereo not given): the concentration for half-maximal inhibition (IC50) was more than 10 µM and the IC90 was more than 10 µM.
Turning to `CC(=O)N(c1nc(/C=C/C(=O)c2ccc(F)c(Br)c2)cs1)c1ccc(F)cc1F`, the IC50 is more than 10 µM and the IC90 was more than 10 µM.
Regarding `Cc1nc(C(C)(C)C)nc2sc(C(=O)NNC(=O)c3ccccn3)c(C)c12`, the IC50 turned out to be 8.36 µM and the IC90 is more than 10 µM.
As to `O=C(Cc1nc(C23CC4CC(CC(C4)C2)C3)cs1)NCc1ccccc1`, the IC50 is more than 10 µM and the IC90 was more than 10 µM.
With `CC(=O)N1CCc2cc(NC(=O)Cn3c(COc4ccc5ccccc5c4)nc4ccccc43)ccc21`, the IC50 is more than 10 µM and the IC90 is more than 10 µM.
Consider `COc1ccc(OCCN2CCN(c3ccc(S(=O)(=O)NC(C)C)cn3)CC2)cc1`, for which the IC50 is more than 10 µM and the IC90 was more than 10 µM.
As for `CCc1sc(C(=O)NNC(=O)CN2CCN(c3ccc([N+](=O)[O-])cc3)CC2)cc1C`, the IC50 is more than 10 µM and the IC90 is more than 10 µM.
On to `Cc1ccc(-c2noc(CCCN3CCN(C(=O)Cn4cnc5c(C)cccc5c4=O)CC3)n2)cc1`, for which the IC50 was more than 10 µM and the IC90 is more than 10 µM.
For `CCn1c(=O)n(CCC(=O)N(CC2CCCO2)c2nc3ccccc3s2)c2ccccc21` (stereo not given), the IC50 was more than 10 µM and the IC90 was more than 10 µM.
In the case of `CCOC(=O)c1c(NC(=O)Cn2ncc(Cl)c(Cl)c2=O)sc2c1CCC(C)C2` (stereo not given), the IC50 was more than 10 µM and the IC90 was more than 10 µM.
Turning to `CCN1CCN(c2ccc(NC(=O)CSc3nc4ccccc4s3)c(C)c2)CC1`, the IC50 was more than 10 µM and the IC90 is more than 10 µM.
Take `CN(C)S(=O)(=O)c1ccc(NC(=O)COc2ccc(Oc3ccc(C(F)(F)F)cn3)cc2)cc1`: the IC50 was more than 10 µM and the IC90 was more than 10 µM.
Consider `CCOc1ccc(N2C(=O)c3ccccc3C(C=NNc3ccc(S(=O)(=O)N(CC)CC)cc3[N+](=O)[O-])C2=O)cc1` (stereo not given), for which the IC50 was more than 10 µM and the IC90 was more than 10 µM.
Take `CCc1ccc(C(=O)C(C)Sc2ccc(S(=O)(=O)N3CCOCC3)cn2)cc1` (stereo not given): the concentration for half-maximal inhibition (IC50) is more than 10 µM and the IC90 is more than 10 µM.
On to `CCn1ncc2c(C(=O)Nc3nc(-c4ccc(OC)cc4OC)cs3)cc(-c3cccs3)nc21`, for which the IC50 was more than 10 µM and the IC90 was more than 10 µM.
Consider `CCOc1ccc(Oc2ccc(S(=O)(=O)N(C)C3CCN(CC)CC3)cc2)cc1`, for which the IC50 is more than 10 µM and the IC90 was more than 10 µM.
For the compound `CC(=O)NCc1ccc(-c2csc(NC(=O)c3cc(-c4ccco4)nc4c3c(C)nn4C)n2)cc1`, the IC50 is more than 10 µM and the IC90 was more than 10 µM.
Turning to `CN(Cc1ccc(-c2ccc(Cl)cc2)o1)Cc1nnc2n(C)c(=O)c3ccccc3n12`, the IC50 is more than 10 µM and the IC90 was more than 10 µM.
Take `CCOC(=O)c1nc(N(CCc2ccccc2)C(=O)c2cccnc2SC)sc1C`: the IC50 is more than 10 µM and the IC90 is more than 10 µM.
On to `COC(=O)c1occc1/C=C/C(=O)c1ccc2c(c1)CCC2`, for which the IC50 is more than 10 µM and the IC90 was more than 10 µM.
As to `CCOC(=O)c1cnn(-c2ccc(NC(=O)COc3ccccc3C#N)cc2)c1C(F)(F)F`, the IC50 is more than 10 µM and the IC90 is more than 10 µM.
Turning to `CCOC(=O)c1cnn(-c2cccc(NC(=O)c3ccc(SC)c([N+](=O)[O-])c3)c2)c1C`, the IC50 was more than 10 µM and the concentration for an effect of 90% (IC90) is more than 10 µM.
On to `Cc1cc(=O)n2nc(CSc3nc4ccccc4c(=O)n3C3CCCC3)sc2n1`, for which the IC50 is more than 10 µM and the IC90 is more than 10 µM.
Turning to `COc1ccc(/C=c2\s/c(=C\C(=O)C(C)(C)C)[nH]c2=O)cc1OCc1cccnc1`, the IC50 is more than 10 µM and the IC90 was more than 10 µM.
On to `O=C1CN(C(=O)CSC2=N/C(=C/c3ccccc3)C(=O)N2c2ccc(F)cc2)c2ccccc2N1`, for which the IC50 is more than 10 µM and the IC90 is more than 10 µM.
In the case of `CCN1CCc2nc(NC(=O)c3nc(-c4cccs4)n(-c4ccc(F)cc4)n3)sc2C1`, the IC50 was more than 10 µM and the IC90 is more than 10 µM.
Turning to `Cc1cn2c(/C=C/C(=O)Nc3cccc(Cl)c3N3CCOCC3)c(C)nc2s1`, the IC50 was more than 10 µM and the IC90 is more than 10 µM.
On to `Cc1ccc(S(=O)(=O)Nc2cccc(C(=O)NN(C)c3ccccc3)c2)cc1F`, for which the IC50 was more than 10 µM and the IC90 was more than 10 µM.
Turning to `Cc1cc(C(=O)CN2CCc3sccc3C2)c(C)n1Cc1cccs1`, the IC50 was 2.21 µM and the IC90 is more than 10 µM.
For `CCCn1c(N)c(C(=O)CSc2nnc(-c3ccccc3)c(-c3ccccc3)n2)c(=O)n(C)c1=O`, the IC50 was more than 10 µM and the IC90 was more than 10 µM.
With `CCN(CC)C(CNc1ccc([N+](=O)[O-])cn1)Cc1ccccc1` (stereo not given), the IC50 amounted to 7 µM and the concentration for an effect of 90% (IC90) was more than 10 µM.
On to `CC1CN(S(=O)(=O)NCC(c2ccccc2Cl)c2c[nH]c3ccccc23)CC(C)O1` (stereo not given), for which the IC50 was more than 10 µM and the IC90 is more than 10 µM.
As to `O=C(c1ccc(NS(=O)(=O)c2cccs2)cc1)N1CCC(c2c[nH]c3ccccc23)CC1`, the IC50 is more than 10 µM and the IC90 was more than 10 µM.

For the origin of these results see ChEMBL document CHEMBL4483862, “Open-source discovery of chemical leads for next-generation chemoprotective antimalarials” (2018).
